Entries after “also recorded” stand apart in the source; their conditions may differ.
Columns and labels:
[1] = test system: myeloid dendritic cells (mDCs); assay: mDCs pre-treated with curdlan and cultured with breast tumor derived products; phenotype staining and cytokine in supernatant; format: cell-based, human
From the text: Isolation and culture of myeloid dendritic cells: DCs were purified from buffy coat of blood from healthy donors. Briefly, DCs were enriched from mononuclear cells by negative selection using a mixture of antibodies against lineage markers for CD3, CD14, CD16, CD19, CD56 and glycophorin A (Dynabeads® Human DC Enrichment Kit, Invitrogen). Cells from negative fraction were immuno-labeled with anti-human FITC-labeled lineage cocktail (CD3, CD14, CD16, CD19, CD20 and CD56, BD biosciences Cat. 340546); PE-labeled CD123 (mIgG1, clone 9F5, BD biosciences Cat. 340545), QR-labeled HLA-DR (mIgG2a, clone HK14, Sigma-Aldrich Cat. R8144) and APC-labeled CD11c (mIgG2b, clone S—HCL-3, BD biosciences Cat. 340544). DCs (lin^−, CD123^−, HLA-DR^+, CD11c^+) were sorted in a FACS Aria cytometer (BD Bioscience). DCs were seeded at 100×10^3 cells/well in 200 μl of medium (RPMI supplemented with glutamine 2 mM, penicillin 50 U/ml, streptomycin 50 μg/ml, MEM non-essential amino acids 0.1 mM, HEPES buffer 10 mM, sodium pyruvate 0.1 mM and 10% of human AB serum). DCs were cultured with medium alone or in the presence of 20 ng/ml of TSLP, or different tumor derived products. After 48 hrs DCs were harvested and washed. The stimulated cells were stained for phenotype analysis or co-culture with allogeneic naïve CD4 T cells.
Tumor factors preparation: Tumor factors were obtained from supernatant of HS578T cells cultured in vitro or by sonication from tumor cell lines, human breast tumor tissue or tumors from humanized mice. Briefly, cell lines were culture in medium (RPMI supplemented with glutamine 2 mM, penicillin 50 U/ml, streptomycin 50 μg/ml, MEM non-essential amino acids 0.1 mM, HEPES buffer 10 mM, sodium pyruvate 0.1 mM and 10% of fetal calf serum), and when the cells reached 90% of confluence fresh medium was added and left the cells in culture for additional 48 hrs. For sonication cells or tissues were placed in PBS and were disrupted during 30 seconds at 4° C., with the power output adjusted at 4.5 level of the 60 sonic dismembrator (Fisher Scientific). Cellular debris were removed by centrifugation and the supernatant was collected and stored at −80° C.
The present inventors believe that DC activators can modulate the functions of DCs and reprogram the immune microenvironment (FIG. 4 A). FIGS. 4B, 4C and 4D show the results when DCs were purified from buffy coat of blood from healthy donors. DCs were cultured with medium alone or in the presence of tumor derived products (FIG. 4B). The curdlan treatment is 3 min at room temperature prior to adding tumor supernatant. After 48 hrs, DCs were harvested and washed. The stimulated cells were staining for phenotype (OX40L, pSTAT4 and pSTAT6). The supernatant of DC culture was used for cytokine (IL-12p70) examination (FIGS. 4C and 4D).

[2] = test system: allogenic naive CD4+ T cells; assay: curdlan-treated, tumor supernatant-activated mDCs co-cultured with allogenic naive CD4+ T cells; intracellular cytokines; format: cell-based, human; conditions: mDCs pre-treated with 100 ug/ml curdlan, MDA-MB231 supernatant 48 hrs, co-culture one week
From the text: After one week, cells were collected and re-stimulated for intracellular cytokines analysis. The analysis of different studies showing the effect of curdlan treatment in the induction of TNFa+IL-13+ secreting cells is shown in FIG. 5 B.

[3] = test system: Hs578T breast cancer cells; assay: breast tumor growth in tumor bearing humanized mice; format: in vivo, NOD/SCID/β2−/− mice; conditions: curdlan (100 ug/ml) co-injected with DCs and T cells at days 3, 6 and 9 post tumor implantation
From the text: Tumor bearing humanized mice: CD34+hematopoietic progenitor cells (HPCs) were obtained from apheresis of adult healthy volunteers mobilized with G-CSF and purified as previously described. The CD34− fraction of apheresis was Ficoll purified, and obtained PBMCs were stored frozen and used as a source of autologous T cells. Three million CD34+HPCs were transplanted intravenously into sublethally irradiated (12 cGy/g body weight of 137Cs γ irradiation) NOD/SCID/β2−/− mice ([…]). After 4 weeks of engraftment 10 million Hs578T breast cancer cells were harvested from cultures and injected subcutaneously into the flanks of the mice. Mice were reconstituted with 10 million CD4+ T cells and 10 million CD8+ T cells autologous to the grafted CD34+ HPCs. CD4+ and CD8+ T cells were positively selected from thawed PBMCs using magnetic selection according to the manufacturer's instructions (Miltenyi Biotec). The purity was routinely >90%. […] Tumor size was monitored every 2-3 d. Tumor volume (ellipsoid) was calculated as follows: [(short diameter)^2×long diameter]/2.
FIGS. 6A and 6B show NOD/SCID/β2−/− mice sub-lethally irradiated the day before tumor implantation. […] Tumor size was monitored every 2-3 d. Tumor volume (ellipsoid) was calculated as follows: [(short diameter)^2×long diameter]/2. […] Supernatant was harvested and cytokines were detected by Luminex.

CD8+ T cells = assay: curdlan-treated, tumor supernatant-activated mDCs co-cultured with allogenic naive total T cells; CD103 staining; format: cell-based, human; conditions: mDCs pre-treated with 100 ug/ml curdlan, MDA-MB231 supernatant 48 hrs, co-culture one week
Description: Sorted mDCs (HLA-DR+/CD11c+/CD123−/Lin−) were pre-treated with 100 ug/ml curdlan and activated by supernatant of a breast cancer cell line (MDA-MB231) for 48 hrs and then co-culture with allogenic naive total T cells (FIG. 7A). After one week, cells were collected and stained with intraepithelial marker, CD 103, together with granzymeA and granzymeB staining CD8+ T cells were sorted from in vitro culture and intratumoral inject into NOD-SCID mice. After 3 days, tumors were harvested and digested with collagenase (FIG. 7B).

[4] = curdlan treatment prior to tumor supernatant, 48 hrs

With β-glucan the “OX40L expression on mDCs (TSLP-mediated OX40L induction)” value [1, 4] was “inhibition of TSLP-mediated OX40L induction; also recorded: can block OX40L expression”, the “pSTAT4/pSTAT6 ratio in mDCs” value [1, 4] was “pSTAT4/pSTAT6 ratio increase” and the “IL-12p70 secretion by mDCs” value ([1]; mDCs activated by breast tumor supernatant, DC culture supernatant, 48 hrs) was “induction of IL-12p70 secretion; also recorded: secrete higher levels of IL-12p70; also recorded: secretion of high levels of IL-12p70”. For the same substance, the “STAT6 phosphorylation in mDCs” value ([1]; tumor associated mDCs) was “blocking STAT6 phosphorylation; also recorded: block in STATE phosphorylation”, the “expansion of TNFα and IL-13-producing CD4+ T cells (inflammatory Th2 phenotype)” value [2] was “can be inhibited; also recorded: do not expand TNFα and IL-13-producing CD4+ T cells; also recorded: non-expansion of TNFα and IL-13-producing CD4+ T cells” and the “breast tumor growth / development” value [3] was “blocks breast tumor growth; also recorded: can inhibit breast tumor development; also recorded: inhibited breast tumor development”. For the same substance, the “expansion of CD8+ T cells expressing CD103” value (CD8+ T cells) was “expand CD8+ T cells expressing CD103”.
